Our source for the IC50 values is patent US20240174680A1, “CDK2 INHIBITORS AND METHODS OF USING THE SAME” (Cedilla Therapeutics, Inc., priority 2021, published 2024).

The assay concerns the target CDK2/Cyclin E1 (Homo sapiens, UniProt P24941). The assay is described as follows: CDK2/Cyclin E1 Caliper LabChip EZ Reader mobility shift assay. The format is biochemical. Also on record: purchased Eurofins 14-475. To be noted: read-out: Caliper Assay (CDK2/CCNE1): IC50. A digest of the protocol:
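Substrate-to-product conversion of fluorescent peptide (1.5 μM final) read by capillary electrophoresis after 100 min reaction, EDTA-quenched. Enzyme (2.5 nM final) and ATP (100 μM final) were preincubated 30 min with inhibitor dilutions first. % activity vs concentration fitted four-parameter for IC50.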
As for `Cc1n[nH]c(C(=O)N2C[C@@H](C(=O)N[C@H](C(=O)N3CCCCC3)[C@@H](C)OCC3CCCCC3)C3(C2)CN(C(=O)[C@H]2CC2(C)C)C3)n1` [I-241], the IC50 fell in the range of 1000 to 10000 nM.
With `COc1cccc(CNC(=O)[C@H]2CN(C(=O)c3cnn(Cc4ccccc4)c3)CC23CN(C(=O)[C@H]2CC2(C)C)C3)n1` [I-126B] the figure was over 10000 nM; with `CC1(C)C[C@@H]1C(=O)N1CC2(CN(C(=O)c3cnn(Cc4ccccc4)c3)C[C@H]2C(=O)NCc2ccc(C(F)(F)F)nn2)C1` [I-392], 1000 to 10000 nM.
As to `CO[C@H]1COCC[C@H]1NC(=O)[C@H]1CN(C(=O)c2cnn(Cc3ccccc3)c2)CC12CN(C(=O)[C@H]1CC1(C)C)C2` [I-134B], the IC50 is over 10000 nM.
With `C[C@@H](OCC1CCOCC1)[C@H](NC(=O)[C@@H]1CN(C(=O)c2cncs2)CC12CN(C(=O)[C@H]1CC1(C)C)C2)C(=O)N1CCC[C@H](COC(F)(F)F)C1` [I-327] the figure was 10 to 100 nM.
With `C[C@@H](OCC1CCOCC1)[C@@H](COC1CCC(F)(F)CC1)NC(=O)[C@@H]1CN(C(=O)c2cncs2)CC12CN(C(=O)C(C)(C)C1CC1)C2` [I-333, (S)-2-(2-cyclopropyl-2-methylpropanoyl)-N-((2R,3R)-1-((4,4-difluorocyclohexyl)oxy)-3-((tetrahydro-2H-pyran-4-yl)methoxy)butan-2-yl)-6-(thiazole-5-carbonyl)-2,6-diazaspiro[3.4]octane-8-carboxamide] the figure was 10 to 100 nM; with `CNC(=O)[C@@H](NC(=O)[C@@H]1CN(C(=O)c2cnn(Cc3ccccc3)c2)CC12CN(C(=O)[C@H]1CC1(C)C)C2)[C@@H](C)OCC1CCOCC1` [I-119A], 100 to 1000 nM.
As for `Cc1ccc(CNC(=O)[C@@H]2CN(C(=O)c3cnn(Cc4ccccc4)c3)CC23CN(C(=O)[C@H]2CC2(C)C)C3)cc1` [I-363], the IC50 lay within 1000 to 10000 nM.
As to `CNC(=O)[C@@H](NC(=O)[C@H]1CN(C(=O)c2cnn(Cc3ccccc3)c2)CC12CN(C(=O)[C@H]1CC1(C)C)C2)[C@@H](C)OCC1CCCCC1` [I-123B], the IC50 was 100 to 1000 nM.
With `CNC(=O)[C@@H](NC(=O)[C@@H]1CN(C(=O)c2cnn(Cc3ccccc3)c2)CC12CN(C(=O)C1(CCF)CC1)C2)[C@@H](C)OCc1ccccc1` [I-117A] the figure was 1000 to 10000 nM.
Regarding `C[C@@H](OCC1CCC(F)(F)CC1)[C@H](NC(=O)[C@@H]1CN(C(=O)c2cncs2)CC12CN(C(=O)C(C)(C)C1CC1)C2)C(=O)N1CCC(O)CC1` [I-337], the IC50 was at most 10 nM.
For `CC1(C)C[C@@H]1C(=O)N1CC2(CN(C(=O)c3cnn(Cc4ccccc4)c3)C[C@H]2C(=O)Nc2ccc(Cc3ccccc3)cc2)C1` [I-84A], the IC50 lay within 1000 to 10000 nM.
On to `CC1(C)C[C@@H]1C(=O)N1CC2(CN(C(=O)c3cnn(Cc4ccccc4)c3)C[C@@H]2C(=O)Nc2ccc(-c3ccccc3)cc2)C1` [I-81B], for which the IC50 lay in the range of 1000 to 10000 nM.
Consider `CC1(C)C[C@@H]1C(=O)N1CC2(CN(C(=O)c3cncs3)C[C@H]2C(=O)NC(CO)c2cccc(C3CCC(F)(F)CC3)n2)C1` (stereo partly drawn) [I-419], for which the IC50 fell in the range of 100 to 1000 nM.
As to `CNC(=O)[C@@H](NC(=O)[C@@H]1CN(C(=O)c2cnn(Cc3ccccc3)c2)CC12CN(C(=O)C(C)(C)C#N)C2)[C@@H](C)OCc1ccccc1` [I-76A], the IC50 was 1000 to 10000 nM.
Regarding `CNC(=O)[C@@H](NC(=O)[C@H]1CN(C(=O)c2cnc(C(F)(F)F)s2)CC12CN(C(=O)[C@H]1CC1(C)C)C2)[C@@H](C)OCC1CCCCC1` [I-161B], the IC50 was over 10000 nM.
On to `CNC(=O)[C@@H](NC(=O)[C@H]1CN(C(=O)c2cnn(Cc3ccccc3)c2)CC12CN(C(=O)CC1CCC1)C2)[C@@H](C)OCc1ccccc1` [I-27B], for which the IC50 was over 10000 nM.
Take `CNC(=O)[C@@H](NC(=O)[C@@H]1CN(C(=O)c2cn[nH]c2)CC12CN(C(=O)CC1CC1)C2)[C@@H](C)OCc1ccccc1` [I-41A, (S)—N-((2S,3R)-3-(benzyloxy)-1-(methylamino)-1-oxobutan-2-yl)-2-(2-cyclopropylacetyl)-6-(1H-pyrazole-4-carbonyl)-2,6-diazaspiro[3.4]octane-8-carboxamide]: the IC50 is over 10000 nM.
The same measure for `CNC(=O)[C@@H](NC(=O)[C@@H]1CN(C(=O)C2CCOCC2)CC12CN(C(=O)[C@H]1CC1(C)C)C2)[C@@H](C)OCc1ccccc1` [I-38A]: over 10000 nM; for `CNC(=O)[C@@H](NC(=O)[C@@H]1CN(C(=O)c2cnn(Cc3ccccc3)c2)CC12CN(C(=O)C1(CCOC)CC1)C2)[C@@H](C)OCc1ccccc1` [I-102A]: over 10000 nM.
The same measure for `CNC(=O)[C@H](CS(=O)(=O)Cc1ccccc1)NC(=O)[C@@H]1CN(C(=O)c2cnn(Cc3ccccc3)c2)CC12CN(C(=O)[C@H]1CC1(C)C)C2` [I-226]: 1000 to 10000 nM; for `CNC(=O)[C@H](CCCc1ccccc1)NC(=O)[C@@H]1CN(C(=O)c2cnn(Cc3ccccc3)c2)CC12CN(C(=O)[C@H]1CC1(C)C)C2` [I-101A]: 100 to 1000 nM.
The same measure for `C[C@@H](OCC1CCCCC1)[C@H](NC(=O)[C@@H]1CN(C(=O)c2cncs2)CC12CN(C(=O)[C@H]1CC1(C)C)C2)C(=O)N1CCC(c2cnc[nH]2)CC1` [I-406]: at most 10 nM.
With `CNC(=O)C(NC(=O)[C@@H]1CN(C(=O)c2cnn(Cc3ccccc3)c2)CC12CN(C(=O)[C@H]1CC1(C)C)C2)c1ccc(C)nn1` (stereo partly drawn) [I-421], the IC50 was 1000 to 10000 nM.
`CNC(=O)[C@H](COCc1ccccc1)NC(=O)[C@H]1CN(C(=O)c2cnn(Cc3ccccc3)c2)CC12CN(C(=O)C(C)(C)C)C2` [I-100B]: the IC50 was over 10000 nM.
The same measure for `CCCCC1CC1C(=O)N1CC2(CN(C(=O)c3cnn(Cc4ccccc4)c3)C[C@@H]2C(=O)N[C@H](C(=O)NC)[C@@H](C)OCc2ccccc2)C1` (stereo partly drawn) [I-94B]: over 10000 nM; for `CNC(=O)[C@@H](NC(=O)[C@@H]1CN(C(=O)c2cnc(Cl)s2)CC12CN(C(=O)[C@H]1CC1(C)C)C2)[C@@H](C)OCC1CCCCC1` [I-189A]: 100 to 1000 nM; for `CNC(=O)[C@@H](NC(=O)[C@@H]1CN(C(=O)c2cnn(Cc3ccccc3)c2)CC12CN(C(=O)N(C)C(C)C)C2)[C@@H](C)OCC1CCCCC1` [I-274, (S)-6-(1-benzyl-1H-pyrazole-4-carbonyl)-N8-((2S,3R)-3-(cyclohexylmethoxy)-1-(methylamino)-1-oxobutan-2-yl)-N2-isopropyl-N2-methyl-2,6-diazaspiro[3.4]octane-2,8-dicarboxamide]: 100 to 1000 nM.
With `C[C@@H](OCC1CCOCC1)[C@H](NC(=O)[C@@H]1CN(C(=O)c2cncs2)CC12CN(C(=O)[C@H]1CC1(C)C)C2)C(=O)N1CCC(F)(F)CC1` [I-288] the figure was 10 to 100 nM; with `COC(=O)[C@@H](CO)NC(=O)[C@H]1CN(C(=O)c2cnn(Cc3ccccc3)c2)CC12CN(C(=O)[C@H]1CC1(C)C)C2` [I-187B], over 10000 nM.
For `CNC(=O)[C@@H](NC(=O)[C@@H]1CN(C(=O)c2cncs2)CC12CN(C(=O)[C@H]1CC1(C)C)C2)[C@@H](C)OC1CCCCC1` [I-290], the IC50 lay in the range of 100 to 1000 nM.
With `C[C@@H](OCC1CCOCC1)[C@H](NC(=O)[C@@H]1CN(C(=O)c2cncs2)CC12CN(C(=O)C(C)(C)C1CC1)C2)C(C)(C)O` [I-341] the figure was 100 to 1000 nM; with `COC[C@H]1CCCN(C(=O)[C@@H](NC(=O)[C@@H]2CN(C(=O)c3cncs3)CC23CN(C(=O)[C@H]2CC2(C)C)C3)[C@@H](C)OCc2cccc(F)c2)C1` [I-322], at most 10 nM.
In the case of `CNC(=O)[C@@H](NC(=O)[C@@H]1CN(Cc2ccccn2)CC12CN(C(=O)[C@H]1CC1(C)C)C2)[C@@H](C)OCc1ccccc1` [I-40A], the IC50 was over 10000 nM.
As for `CNC(=O)[C@@H](NC(=O)[C@@H]1CN(C(=O)c2cnn(Cc3ccccc3)c2)CC12CN(C(=O)C(C)C)C2)[C@@H](C)OCc1ccccc1` [I-54A], the IC50 was 100 to 1000 nM.
The same measure for `C[C@@H](OCC1CCC(F)(F)CC1)[C@H](NC(=O)[C@@H]1CN(C(=O)c2cncs2)CC12CN(C(=O)[C@H]1CC1(C)C)C2)C(=O)N1CCC[C@H](COC(F)(F)F)C1` [I-326]: at most 10 nM; for `CC1(C)C[C@@H]1C(=O)N1CC2(CN(C(=O)c3cnn(Cc4ccccc4)c3)CC2C(=O)NC2CNCCOC2)C1` (stereo partly drawn) [I-245]: 1000 to 10000 nM.
The same measure for `CO[C@H](C)[C@H](NC(=O)[C@@H]1CN(C(=O)c2cnn(Cc3ccccc3)c2)CC12CN(C(=O)[C@H]1CC1(C)C)C2)C(=O)N1CCC(CN)CC1` [I-306]: 1000 to 10000 nM; for `C[C@@H](OCC1CCOCC1)[C@@H](COC(F)(F)F)NC(=O)[C@@H]1CN(C(=O)c2cncs2)CC12CN(C(=O)[C@H]1CC1(C)C)C2` [I-428]: 100 to 1000 nM; for `C[C@@H](OCC1CCCCC1)[C@@H](COC1CCCCC1)NC(=O)[C@@H]1CN(C(=O)c2cncs2)CC12CN(C(=O)[C@H]1CC1(C)C)C2` [I-308]: at most 10 nM.
The same measure for `CNC(=O)[C@@H](NC(=O)[C@H]1CN(C(=O)c2cnc(COC)s2)CC12CN(C(=O)[C@H]1CC1(C)C)C2)[C@@H](C)OCC1CCCCC1` [I-145B]: 1000 to 10000 nM; for `C[C@@H](OCC1CCC(F)(F)CC1)[C@H](NC(=O)[C@@H]1CN(C(=O)c2cncs2)CC12CN(C(=O)[C@H]1CC1(C)C)C2)C(=O)N1CCC(O)CC1` [I-383]: at most 10 nM.
Consider `CNC(=O)[C@@H](NC(=O)[C@@H]1CN(C(=O)c2cnn(Cc3ccccc3)c2)CC12CN(C(=O)C1(C)CC1)C2)[C@@H](C)OCc1ccccc1` [I-67A, (S)-6-(1-benzyl-1H-pyrazole-4-carbonyl)-N-((2S,3R)-3-(benzyloxy)-1-(methylamino)-1-oxobutan-2-yl)-2-(1-methylcyclopropane-1-carbonyl)-2,6-diazaspiro[3.4]octane-8-carboxamide], for which the IC50 lay within 100 to 1000 nM.
Consider `C[C@@H](OCC1CCC(F)(F)CC1)[C@H](NC(=O)[C@@H]1CN(C(=O)c2cncs2)CC12CN(C(=O)[C@H]1CC1(C)C)C2)C(=O)N1CCC(CO)CC1` [I-397], for which the IC50 is at most 10 nM.
With `COC[C@H]1CCCN(C(=O)[C@@H](NC(=O)[C@@H]2CN(C(=O)c3cncs3)CC23CN(C(=O)[C@H]2CC2(C)C)C3)[C@@H](C)OCc2ccc(C(F)(F)F)cc2)C1` [I-319] the figure was at most 10 nM.
